The values below come from patent US9889123B2, “Polymorphs of deuterated omega-diphenylurea or salts thereof” (Suzhou Zelgen Biopharmaceuticals Co., Ltd., priority 2012, dated 2018).

Type in all cases: physicochemical
Data set [1] is described as follows: Accelerated stability test. The settings on record: 40° C., 75% RH, 1-6 months.
The nature of data set [2]: Drug hygroscopicity test (Chinese Pharmacopoeia 2010 edition, Appendix XIX J). The conditions noted are these: humidistatic dryer (saturated ammonium sulfate) at 25° C.±1° C. for 24 hours.
Protocol: Take 4 dry glass weighing bottles with a top (The outer diameter was 60 mm and height was 30 mm). On the day before the test, the bottles was placed in a glass dryer (A saturated ammonium sulfate solution was placed in the lower part thereof) in a thermostatic and humidistatic chamber at 25° C.±1° C. (hereinafter, “a humidistatic dryer at 25° C.±1° C.”). The weighing bottle and its top were placed separately without the top on the bottle. Cover the glass dryer closely.
After each empty weighing bottle together with its top were placed in a humidistatic dryer at 25° C.±1° C. for 24 hours, weigh a set (the weighing bottle+its top) as a unit precisely respectively, recorded as m1. Take a sample appropriately, tile it in a glass weighing bottle weighed at a sample thickness of about 1 mm, and cover the bottle. Precisely weigh the weighing bottle with its top and the sample, recorded as m2. […] Then take off the top of the weighing bottles, and put the bottle and its top in the humidistatic dryer at 25° C.±1° C. for 24 hours.
After each sample were placed in a humidistatic dryer at 25° C.±1° C. for 24 hours, cover the weighing bottles with their tops respectively, and precisely weigh each weighing bottle with its top and the sample at this specific moment, recorded as m3. […]
Data set [3] is described as follows: Solubility in solvents (description of the compound). The text has this: The compound of formula I, with a molecular formula of C21H13D3ClF3N4O3 and a molecular weight of 467.84, is a white or off-white crystal powder, odorless and tasteless.

For the compound `Cc1ccc(S(=O)(=O)O)cc1.[2H]C([2H])([2H])NC(=O)c1cc(Oc2ccc(NC(=O)Nc3ccc(Cl)c(C(F)(F)F)c3)cc2)ccn1.[2H]C([2H])([2H])NC(=O)c1cc(Oc2ccc(NC(=O)Nc3ccc(Cl)c(C(F)(F)F)c3)cc2)ccn1` [polymorph V, 1/2 p-toluenesulfonate of 4-(4-{3-[4-chloro-3-(trifluoromethyl)phenyl)-ureido]-phenoxy}-2-(N-1′,1′,1′-trideutero-methyl)pico linamide], the “stability of crystal form” value in data set [1] was “very stable”.
Still for that read-out and setting: to `CNC(=O)c1cc(Oc2ccc(NC(=O)Nc3ccc(Cl)c(C(F)(F)F)c3)cc2)ccn1.Cc1ccc(S(=O)(=O)O)cc1` [polymorph II, methanol solvate of the 1/1 p-toluenesulfonate of 4-(4-{3-[4-chloro-3-(trifluoromethyl)phenyl)-ureido]-phenoxy}-2-(N-1′,1′,1′-trideutero-methyl)pico linamide] belongs “very stable”.
For `Cc1ccc(S(=O)(=O)O)cc1.[2H]C([2H])([2H])NC(=O)c1cc(Oc2ccc(NC(=O)Nc3ccc(Cl)c(C(F)(F)F)c3)cc2)ccn1` [polymorph I, 1/1 p-toluenesulfonate of 4-(4-{3-[4-chloro-3-(trifluoromethyl)phenyl)-ureido]-phenoxy}-2-(N-1′,1′,1′-trideutero-methyl)picolinamide], in data set [2], the hygroscopicity result is “no hygroscopicity” and the “weight increase (%)” value worked out at 0%. For the same compound, the “stability of crystal form” value in data set [1] is given as “very stable”. Moreover, in data set [1] (compared to freshly prepared (0 Months)), the “purity after accelerated stability test” value is “above 99%”.
Turning to `[2H]C([2H])([2H])NC(=O)c1cc(Oc2ccc(NC(=O)Nc3ccc(Cl)c(C(F)(F)F)c3)cc2)ccn1` [compound of formula I, 4-(4-{3-[4-chloro-3-(trifluoromethyl)phenyl)-ureido]-phenoxy}-2-(N-1′,1′,1′-trideutero-methyl)picolinamide], the solubility in acetone entry in data set [3] (solvent acetone) is on record as “slightly soluble”. In addition, the “solubility in anhydrous ethanol” value in data set [3] (solvent anhydrous ethanol) was “slightly soluble”. Moreover, the “solubility in dimethyl formamide” value in data set [3] (solvent dimethyl formamide) is given as “very soluble”. The “solubility in dimethyl sulfoxide” value in data set [3] (solvent dimethyl sulfoxide) is reported as “very soluble”. In data set [3] (solvent glacial acetic acid), the “solubility in glacial acetic acid” value is on record as “slightly soluble”. Also, the solubility in methanol entry in data set [3] (solvent methanol) is “sparingly soluble”. In data set [3] (solvent water), the solubility in water result was “practically insoluble”.
For the compound `CCO.Cc1ccc(S(=O)(=O)O)cc1.[2H]C([2H])([2H])NC(=O)c1cc(Oc2ccc(NC(=O)Nc3ccc(Cl)c(C(F)(F)F)c3)cc2)ccn1` [polymorph IV, ethanol solvate of the 1/1 p-toluenesulfonate of 4-(4-{3-[4-chloro-3-(trifluoromethyl)phenyl)-ureido]-phenoxy}-2-(N-1′,1′,1′-trideutero-methyl)pico linamide], the “stability of crystal form” value in data set [1] was “very stable”.
Consider `[2H]C([2H])([2H])NC(=O)c1cc(Oc2ccc(NC(=O)Nc3ccc(Cl)c(C(F)(F)F)c3)cc2)ccn1` [polymorph VI, 4-(4-{3-[4-chloro-3-(trifluoromethyl)phenyl)-ureido]-phenoxy}-2-(N-1′,1′,1′-trideutero-methyl)picolinamide], for which, in data set [1], the “stability of crystal form” value is listed as “very stable”.
